Assay results taken from US20240318220A1, “IONIC LIQUIDS BASED ON UNNATURAL AMINO ACIDS, PREPARATION METHODS THEREOF, AND APPLICATIONS THEREOF” (PEKING UNIVERSITY, priority 2022, published 2024).

How the values were obtained:
[1] = Serum concentration curve of NAEK after oral administration; format: in vivo; conditions: mice, 30 mg NAEK or equimolar amount
Method: FIG. 5B. […] The NAEK content in the serum reached a maximum of about 1.6 μg/mL two hours after oral administration, as evidenced by the curve in the NAEK-aqueous solution group. Subsequently, 8 hours after oral administration, the NAEK content in the serum diminished to nearly zero, indicating rapid metabolism of NAEK, which could be completed in 6 hours. […] Furthermore, only 22 hours after oral administration, the serum NAEK content approached zero, indicating complete metabolism within approximately […].
Two experimental groups were set, with 12 mice in each group. In one group, each mouse was orally administered with 30 mg NAEK aqueous solution, and in the other group, each mouse was orally administered with an equimolar amount of Ch-NAEK. Blood was collected from the orbital plexus of the mice at 1 h, 2 h, 4 h, 6 h, 8 h, 9 h, 10 h, 14 h, 19 h, and 22 h time points to plot the NAEK serum concentration in mice as function of time (FIG. 5B).

[2] = system: mdx mice; assay: Full-length expression of Dystrophin in muscle tissue by immunoblotting; format: in vivo; conditions: mdx mice with AAV-MmpylRS-tRNA, oral, 2 weeks
Method: FIG. 12. Flow Diagram of Treating DMD Disease in Mdx Mouse Model Using Ionic Liquid Ch-NAEK and the Codon Expansion System Experimental exploration was conducted to investigate the treatment of DMD disease. Following successful synthesis, identification and activity evaluation of the three ionic liquids Ch-NAEK, Ch-pAcF and Ch-Anap, Ch-NAEK was selected as the preferred ionic liquid for subsequent disease treatment. mdx mice with DMD disease were initially intramuscularly injected with AAV-MmpylRS-tRNA virus and subsequently orally administered with Ch-NAEK (at a mass volume fraction of 70%) daily for four weeks. Muscle tissue samples were collected in the first, second, and fourth weeks for detection of Dystrophin protein restoration. HE pathological staining of mouse muscle tissue, determination of serum CK kinase content, and testing of mouse grip strength were performed.
mdx mice, a classic mouse model for DMD (Duchenne Muscular Dystrophy) research, have a nonsense mutation of TAA at the […] of Dystrophin exon, resulting in the failure of normal expression of Dystrophin, and thus leading to symptoms of muscle atrophy in muscle and heart tissues in mice. mdx mice injected with AAV-MmpylRS-tRNA virus were divided into two experimental groups. […] The therapeutic effects were evaluated at the time points of 1, 2, and 4 weeks after administration. […]

With `[N-]=[N+]=NCCOC(=O)NCCCC[C@H](N)C(=O)O` [NAEK-aqueous solution] the “maximum NAEK content in serum” value [1] was “about 1.6 μg/mL”, the “time after oral administration at which serum NAEK content approached zero” value [1] was 8 h and the “time for complete metabolism of NAEK” value [1] was 6 h. The “time of maximum serum NAEK content after oral administration” value [1] was “two” and the “restoration of full-length disease protein (Dystrophin) expression, in words” value [2] was “very low”.
